Results on six compounds are retold here after patent publication US20220298486A1, “UROTHELIAL CELL INDUCTION AGENT AND METHOD FOR INDUCING UROTHELIAL CELLS” (CellAxia Inc, priority 2019, published 2022).

Common to all, as to format: cell-based, human
In experiment [1] the test system is aHDFs into which F, T, L, and K had been introduced. The experiment is described as follows: examination of medium components (modified Uromedium) for selective proliferation of dUCs. The following applies: for influence of concentration of the component on UPK2 mRNA: Uromedium with modified concentration. As to the method:
(A) aHDFs into which F, T, L, and K had been introduced were cultured in “Uromedium” medium with modified concentrations of insulin, hydrocortisone, EGF, and IBMX. On Day 21, total RNA was extracted from aHDFs and control aHDFs free of gene introduction, and the gene expression level of UPK2 was measured by real-time RT-PCR. The values shown by mean±SD were normalized by β-actin mRNA expression and shown relative to the value of aHDFs free of gene introduction as 1.0 (N=3). (B) Phase-contrast microscopic images of aHDFs into which F, T, L, and K were introduced, and cultured for 21 days in “Uromedium” medium in which the concentration of hydrocortisone was modified to 0-fold and the concentration of IBMX was modified to 10-fold. Imaging magnification: ×10 (C) Phase-contrast microscopic images of aHDFs into which F, T, L, and K were introduced, and cultured for 21 days in “Uromedium” medium with or without addition of 1 μM tranylcypromine. The bar is 100 μm. (D) Phase-contrast microscopic images of aHDFs into which F, T, L, and K were introduced or not introduced, and cultured for 21 days in “Uromedium” medium or “UCM” medium. The bar is 100 μm.
“Uromedium” medium was produced according to the method of Osborn et al. (Osborn S L, (2014) Stem Cell Transl Med 3(5):610-619.). In summary fashion, the “Uromedium” medium is composed of EpiLife™ medium supplemented with 60 μM calcium (Gibco; MEP1500CA), 60 μg/mL bovine brain hypophysis extract (Gibco), 5 μg/mL human gene recombinant insulin (Diagnocine), 500 ng/mL hydrocortisone (Tokyo Chemical Industry Co., Ltd.), gentamicinamphotericin (Gibco), 2% FBS, 0.1 ng/mL human gene recombinant epidermal growth factor (EGF) (RSD), and 100 μM 3-isobutyl 1-methylxanthine (IBMX) (Sigma-Aldrich).
The “UCM” medium is composed of EpiLife™ medium supplemented with 60 μM calcium, 60 μg/mL bovine brain hypophysis extract, 5 μg/mL human gene recombinant insulin, gentamicinamphotericin, 2% FBS, 0.01 ng/mL human gene recombinant EGF, 1 mM IBMX, and 1 μM tranylcypromine (Abcam).

Experiment [2] relates to aHDFs. In words: real-time RT-PCR of marker mRNA in aHDFs after retroviral gene introduction. The following applies: F, T, L, K-introduced aHDFs; plates uncoated or coated with collagen, poly-L-lysine, laminin; day 21. As to the method: (§1) aHDFs were seeded on a laminin-coated 12-well plate or a laminin-uncoated 12-well plate, and the gene was introduced using a retroviral vector. The cells were cultured in CnT-Prime medium or other medium, and 21 days later, observation with a phase contrast microscope, real-time PCR, and analysis of immunocytochemistry were performed. The cells were passaged in fresh culture plates and used for RNA sequencing and penetration assay. In the in vivo experiment, cells into which F, T, L, and K had been introduced were transurethrally transplanted into the injured bladder cavity of an interstitial cystitis mouse through a catheter.
(§2) aHDFs were seeded in 12-well plates coated with atelocollagen (KOKEN; I-PC30), poly-L-lysine (ScienCell), or laminin (Easy iMatrix-511 silk) at a density of 3×10^4 cells/well. After 24 hr, the medium was replaced with the retroviral suspension that was filtrated through a 0.45 μm pore filter (Toyo Roshi Kaisha, Ltd., ADVANTEC) and supplemented with 4 μg/mL polybrene. The next day, the culture supernatant was replaced with Standard Medium free of virus, and replaced with CnT-Prime or “UCM” medium 3 days later. The culture medium was changed every 3 or 4 days.
Total RNA was extracted using RNeasy Mini Kit (Qigen) according to the manufacturer's protocol. […] The relative mRNA expression levels were calculated from the following formula: […]
For orientation: Quantitative PCR measures a nucleic acid by following its amplification.

The test system of experiment [3] is aHDFs. In words: epithelial (urothelial) cell colony formation, phase contrast microscope observation. To be noted: F, T, L, K-introduced aHDFs; plates uncoated or coated with collagen, poly-L-lysine, laminin; day 21. Here is the method: as §1, §2

Regarding `N[C@@H]1C[C@H]1c1ccccc1` (racemic) [tranylcypromine], the “formation of urothelial cell colonies” value in experiment [1] (Uromedium with addition of 1 μM tranylcypromine, 21 days) is listed as “enhanced”.
For `CC(C)Cn1c(=O)n(C)c(=O)c2[nH]cnc21` [IBMX, 3-isobutyl 1-methylxanthine], the “expression of UPK2 mRNA” value in experiment [1] (1-10 mM IBMX in Uromedium, day 21) is on record as “played a beneficial role”. In addition, the “epithelial cell colony formation” value in experiment [1] (medium containing 10 mM IBMX, 21 days) is “form epithelial cell colonies”.
Turning to `C[C@]12CCC(=O)C=C1CC[C@@H]1[C@@H]2[C@@H](O)C[C@@]2(C)[C@H]1CC[C@]2(O)C(=O)CO` [hydrocortisone], the “influence of concentration of the component on UPK2 mRNA” value in experiment [1] (day 21) is given as “not definitive”.
In the case of “EGF: human gene recombinant epidermal growth factor”, the “mRNA expression of UPK2” value in experiment [1] (addition of 0.01-1 ng/mL EGF, day 21) is “increased”.
Take insulin: human gene recombinant insulin: the “influence of concentration of the component on UPK2 mRNA” value in experiment [1] (day 21) is reported as “not definitive”.
For the compound laminin, the “expression of UPK1b and UPK2 mRNAs by plate coating” value in experiment [2] was “the highest”. Further, the “epithelial cell colony formation by plate coating” value in experiment [3] is given as “formed only in laminin-coated plates”.
